{"source": "ChEMBL document CHEMBL5537196", "about": "“Discovery of KIN-3248, An Irreversible, Next Generation FGFR Inhibitor for the Treatment of Advanced Tumors Harboring FGFR2 and/or FGFR3 Gene Alterations” (J Med Chem, 2024)", "key": {"[1]": {"assay": "Half life in Sprague-Dawley rat at 5 mg/kg,iv administrated at 0.25 to 24 hrs by LC-MS/MS analysis", "type": "ADME, organism-based", "conditions": "in vivo, time 0.25-24 hrs"}, "[2]": {"assay": "Total clearance in Sprague-Dawley rat at 5 mg/kg,iv administrated at 0.25 to 24 hrs by LC-MS/MS analysis", "type": "ADME, organism-based", "conditions": "in vivo, time 0.25-24 hrs"}, "[3]": {"assay": "Cmax in Sprague-Dawley rat at 15 mg/kg,po administrated at 0.25 to 24 hrs by LC-MS/MS analysis", "type": "ADME, organism-based", "conditions": "in vivo, time 0.25-24 hrs"}, "[4]": {"assay": "AUC (0 to 24 hrs) in Sprague-Dawley rat at 15 mg/kg,po administrated at 0.25 to 24 hrs by LC-MS/MS analysis", "type": "ADME, organism-based", "conditions": "in vivo, time 0.25-24 hrs"}, "[5]": {"assay": "Oral bioavailability in Sprague-Dawley rat at 15 mg/kg administrated at 0.25 to 24 hrs by LC-MS/MS analysis", "type": "ADME, organism-based", "conditions": "in vivo, time 0.25-24 hrs"}, "[6]": {"assay": "Half life in Beagle dog at 5 mg/kg,iv administrated at 0.25 to 24 hrs by LC-MS/MS analysis", "type": "ADME, organism-based, Canis lupus familiaris", "conditions": "in vivo, time 0.25-24 hrs"}, "[7]": {"assay": "Total clearance in Beagle dog at 5 mg/kg,iv administrated at 0.25 to 24 hrs by LC-MS/MS analysis", "type": "ADME, organism-based, Canis lupus familiaris", "conditions": "in vivo, time 0.25-24 hrs"}, "[8]": {"assay": "Cmax in Beagle dog at 10 mg/kg,po administrated at 0.25 to 24 hrs by LC-MS/MS analysis", "type": "ADME, organism-based, Canis lupus familiaris", "conditions": "in vivo, time 0.25-24 hrs"}, "[9]": {"assay": "AUC (0 to 24 hrs) in Beagle dog at 10 mg/kg,po administrated at 0.25 to 24 hrs by LC-MS/MS analysis", "type": "ADME, organism-based, Canis lupus familiaris", "conditions": "in vivo, time 0.25-24 hrs"}, "[10]": {"assay": "Oral bioavailability in Beagle dog at 10 mg/kg administrated at 0.25 to 24 hrs by LC-MS/MS analysis", "type": "ADME, organism-based, Canis lupus familiaris", "conditions": "in vivo, time 0.25-24 hrs"}, "[11]": {"assay": "Intrinsic clearance in human liver microsomes", "type": "ADME, Microsome", "conditions": "read-out: CLH"}, "[12]": {"assay": "Intrinsic clearance in human hepatocyte measured per 10^6 cells", "type": "ADME, cell-based", "conditions": "hepatocytes, read-out: CLH"}, "SNU-16": {"tested_on": "SNU-16", "assay": "Antiproliferative activity against human SNU-16 cells assessed as inhibition of cell growth incubated for 5 days by Cell-titer glo assay", "conditions": "SNU-16, 120 h"}, "CC-LP-1 [13]": {"tested_on": "CC-LP-1", "assay": "Antiproliferative activity against human CC-LP-1 cells assessed as inhibition of cell growth incubated for 3 days by Cell-titer glo assay", "conditions": "CC-LP-1, 72 h"}, "CC-LP-1 [14]": {"tested_on": "CC-LP-1", "assay": "Antiproliferative activity against human CC-LP-1 cells expressing FGFR2 V565F mutant assessed as inhibition of cell growth incubated for 3 days by Cell-titer glo assay", "conditions": "CC-LP-1, 72 h"}, "CC-LP-1 [15]": {"tested_on": "CC-LP-1", "assay": "Antiproliferative activity against human CC-LP-1 cells expressing FGFR2 N550H mutant assessed as inhibition of cell growth incubated for 3 days by Cell-titer glo assay", "type": "functional, cell-based", "conditions": "CC-LP-1, 72 h"}, "CC-LP-1 [16]": {"tested_on": "CC-LP-1", "assay": "Antiproliferative activity against human CC-LP-1 cells expressing FGFR2 N550K mutant assessed as inhibition of cell growth incubated for 3 days by Cell-titer glo assay", "conditions": "CC-LP-1, 72 h"}, "[17]": {"assay": "Antiproliferative activity against human ICC13-7 cells assessed as inhibition of cell growth incubated for 3 days by Cell-titer glo assay", "conditions": "ICC13-7, 72 h"}, "[18]": {"assay": "Antiproliferative activity against human ICC13-7 cells expressing FGFR2 V565F mutant assessed as inhibition of cell growth incubated for 10 days by Cell-titer glo assay", "conditions": "ICC13-7, 240 h"}, "[19]": {"assay": "Antiproliferative activity against human ICC13-7 cells expressing FGFR2 N550K mutant assessed as inhibition of cell growth incubated for 10 days by Cell-titer glo assay", "conditions": "ICC13-7, 240 h"}, "RT-112 [20]": {"tested_on": "RT-112", "assay": "Antiproliferative activity against human RT-112 cells assessed as inhibition of cell growth incubated for 5 days by Cell-titer glo assay", "conditions": "RT-112, 120 h"}, "RT-112 [21]": {"tested_on": "RT-112", "assay": "Antiproliferative activity against human RT-112 cells expressing FGFR3 assessed as inhibition of cell growth incubated for 5 days by Cell-titer glo assay", "conditions": "RT-112, 120 h"}, "RT-112 [22]": {"tested_on": "RT-112", "assay": "Antiproliferative activity against human RT-112 cells expressing FGFR3 V555M mutant assessed as inhibition of cell growth incubated for 5 days by Cell-titer glo assay", "conditions": "RT-112, 120 h"}, "RT-112 [23]": {"tested_on": "RT-112", "assay": "Antiproliferative activity against human RT-112 cells expressing FGFR3 N540K mutant assessed as inhibition of cell growth incubated for 5 days by Cell-titer glo assay", "conditions": "RT-112, 120 h"}, "RT-112 [24]": {"tested_on": "RT-112", "assay": "Antiproliferative activity against human RT-112 cells expressing FGFR3 K650M mutant assessed as inhibition of cell growth incubated for 5 days by Cell-titer glo assay", "conditions": "RT-112, 120 h"}, "[25]": {"assay": "Antitumor activity against patient derived STO357 PDX cells xenografted in mouse assessed as tumor growth inhibition at 1 mg/kg,po administrated once daily for 3 weeks relative to control", "type": "functional", "conditions": "Homo sapiens, 504 h, read-out: TGI"}}, "data": [{"smiles": "C=CC(=O)N1C[C@@H](n2nc(C#Cc3ccc4c(c3)ncn4C3CC3)c(C(N)=O)c2NC)C[C@@H]1COC", "values": [{"measurement": "half-life", "setting": "[1]", "result": 4.88, "unit": "h"}, {"measurement": "clearance", "setting": "[2]", "result": 26.1, "unit": "mL/min/kg"}, {"measurement": "Cmax", "setting": "[3]", "result": 1720, "unit": "ng/mL"}, {"measurement": "AUC(0-t)", "setting": "[4]", "result": 3020, "unit": "ng·h/mL"}, {"measurement": "bioavailability", "setting": "[5]", "result": 31.4, "unit": "%"}, {"measurement": "half-life", "setting": "[6]", "result": 6.46, "unit": "h"}, {"measurement": "clearance", "setting": "[7]", "result": 31.1, "unit": "mL/min/kg"}, {"measurement": "Cmax", "setting": "[8]", "result": 124, "unit": "ng/mL"}, {"measurement": "AUC(0-t)", "setting": "[9]", "result": 312, "unit": "ng·h/mL"}, {"measurement": "bioavailability", "setting": "[10]", "result": 4.6, "unit": "%"}, {"measurement": "microsomal CLint", "setting": "[11]", "result": 47.4, "unit": "µL/min/mg"}, {"measurement": "hepatocyte CLint", "setting": "[12]", "result": 6.6, "unit": "µL/min/1e6 cells"}]}, {"smiles": "CCN1C(=O)N(c2c(F)c(OC)cc(OC)c2F)Cc2cnc3[nH]c(CN4CCOCC4)cc3c21", "note": "[PEMIGATINIB]", "values": [{"measurement": "IC50", "setting": "SNU-16", "result": 3.9, "unit": "nM"}, {"measurement": "IC50", "setting": "CC-LP-1 [13]", "result": 3.6, "unit": "nM"}, {"measurement": "IC50", "setting": "CC-LP-1 [14]", "result": 1630, "unit": "nM"}, {"measurement": "IC50", "setting": "CC-LP-1 [15]", "result": 48.7, "unit": "nM"}, {"measurement": "IC50", "setting": "CC-LP-1 [16]", "result": 493, "unit": "nM"}, {"measurement": "IC50", "setting": "[17]", "result": 2.6, "unit": "nM"}, {"measurement": "IC50", "setting": "[18]", "result": "> 2350", "unit": "nM"}, {"measurement": "IC50", "setting": "[19]", "result": 416, "unit": "nM"}, {"measurement": "IC50", "setting": "RT-112 [20]", "result": 3.3, "unit": "nM"}, {"measurement": "IC50", "setting": "RT-112 [21]", "result": 6, "unit": "nM"}, {"measurement": "IC50", "setting": "RT-112 [22]", "result": "> 1150", "unit": "nM"}, {"measurement": "IC50", "setting": "RT-112 [23]", "result": 1880, "unit": "nM"}, {"measurement": "IC50", "setting": "RT-112 [24]", "result": 174, "unit": "nM"}, {"measurement": "inhibition in vivo at 1 mg/kg", "setting": "[25]", "result": 57, "unit": "%"}]}]}
